From US12459951B2, “Compounds that interact with RAS superfamily proteins for treatment of cancers, inflammatory diseases, rasopathies, and fibrotic disease” (SHY Therapeutics, LLC, priority 2022, dated 2025) come the findings set out here.

Read-outs that look alike come from different tables or passages of the source. Bounds are passed on as bounds.

Assay [1] deals with MM.1R (expressing wild type KRAS). Kind of assay: Proliferation Assay (Cell Viability Assay). Type of assay: cell-based. To be noted: Homo sapiens, read-out: MM.1R IC50 (nM) Multiple Myloma. The gist of the method:
(§1)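 Cells plated at 2000–5000/well overnight, then treated 2–4 days at 37 °C, 5% CO2 with compound at 10 μM single dose or serial dilutions for IC50, in 0.3% DMSO and 10% FBS. Viability read by CellTiter 96 Aqueous One (MTS); % proliferation inhibition calculated from raw data.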

A further assay relates to A375 (wild type Kras). The assay is described as follows: Proliferation Assay (Cell Viability Assay). Format: cell-based. To be noted: Homo sapiens, A-375. The gist of the method: as §1
Assay [2] has as its system GP2d (expressing KRas G12D mutant). Kind of assay: Proliferation Assay (Cell Viability Assay). Format: cell-based. As to conditions: Homo sapiens. The gist of the method:
as §1

Assay [3] deals with NCI-H358 (expressing KRas G12C mutant). Kind of assay: Proliferation Assay (Cell Viability Assay). Type of assay: cell-based. To be noted: Homo sapiens. The gist of the method:
as §1

Assay [4] deals with BT-549 (expressing wild type KRAS). Kind of assay: Proliferation Assay (Cell Viability Assay). Format: cell-based. As to conditions: Homo sapiens. The gist of the method:
as §1

Another assay concerns active/cleaved caspase 6. The assay is described as follows: Cell-based caspase activation assay (western blot). Further details: species or system human. As for the experimental part:
(§2) Biological Example 4: Puma Expression and Caspases Activation Assay
(§3) Protocols for Cell-Based Puma Expression and Caspase Activation Assays
(§4) Cell lines: All human tumor-derived cancer cell lines were purchased from American Type Culture Collection. Human tumor-derived cancer cell lines Panc-1 (expressing KRas G12D mutant), MiaPaca-2 (expressing KRas G12C mutant), A549 (expressing KRas G12S mutant), and A375 (expressing wild type KRas) were grown in complete DMEM-High Glucose medium and NCI-H1975 (expressing wild type KRas), MM.1R (expressing wild type KRas) and IM.9 (expressing wild type KRas) were grown in RPMI1640 medium. Human tumor-derived cancer cell line BT-549 (expressing wild type KRas) was grown in RPMI1640 medium with 11.8U insulin. All mediums were supplemented with penicillin (100 U/mL), streptomycin (100 μg/mL), and 10% heat-inactivated FBS at 37° C. in a humidified incubator with 5% CO2.
(§5) Method: Cells were plated at 300,000 to 800,000 cells/well density in a 6-well plate in the presence of 10% FBS. The next day small molecules to be tested were added to the cells in the final concentration of 3 μM in the presence of 0.3% DMSO for 48 hours incubation at 37° C. For IC50 value determination, serial dilutions of compounds were added to cells under the same conditions. Following 48 hours of incubation cells were lysed with lysis buffer containing 1% Triton X-100, EDTA, and Halt™ Protease & Phosphatase Inhibitor Cocktail (Thermo Scientific). Protein concentration was assessed by BCA protein assay (Thermo Scientific). Increase expression of PUMA and active/cleaved forms of caspase 3, caspase 6 and caspase 9 were detected by western blot.
(§6) Western blot protocol: Equal amounts of protein (15-50 μg) were separated by SDS-PAGE and transferred to nitrocellulose membranes (Invitrogen by Thermo Fisher Scientific). The membrane was stained with Ponceau S Stain (Boston BioProducts) to verify uniform protein loading. Membranes were blocked with 10% milk and expression levels of PUMA was assessed by incubating overnight at 4° C. with the antibody PUMA (D30C10) from Cell Signaling Technology (#12450) and active/cleaved forms of caspase 3, caspase 6 and caspase 9 by incubating overnight at 4° C. with the following antibodies: cleaved caspase-3 (Asp175) (5A1E), cleaved caspase-6 (Asp162) and cleaved caspase-9 (Asp330) (D2D4) (all antibodies from Cell Signaling Technology). Then the membranes were incubated with HRP-conjugated secondary antibody (Jackson Immunoresearch, West Grove, PA). Bands were incubated in Amersham ECL Prime Western Blotting Detection Reagent (GE Healthcare) and visualized using the ChemiDoc MP imaging system (Bio-Rad).
(In general: In western blotting, separated proteins are transferred to a membrane and probed.)

The next assay concerns active/cleaved caspase 9. The assay is described as follows: Cell-based caspase activation assay (western blot). Further details: species or system human. As for the experimental part: as §2, §3, §4, §5, §6
A further assay concerns active/cleaved caspase 3. Kind of assay: Cell-based caspase activation assay (western blot). More on the design: species or system human. As for the experimental part: as §2, §3, §4, §5, §6
Where [5] appears, read: Proliferation assay, A375, read-out: A375 IC50 (nM) Melanoma.
Setting [6] is: Proliferation assay, read-out: GP2d IC50 (nM) Colorectal.
[7] abbreviates: Proliferation assay, NCI-H358, read-out: NCI-H358 IC50 (nM) NSCLC.
[8] abbreviates: BT-549, Proliferation assay, BT549, read-out: BT549 IC50 (nM) TNBC.

On to `COc1cc(Nc2nc(-c3nccn3C)nn3cc(-c4ccn(C)n4)c(C)c23)n[nH]1` [Compound 252, N-(5-Methoxy-1H-pyrazol-3-yl)-5-methyl-2-(1-methyl-1H-imidazol-2-yl)-6-(1-methyl-1H-pyrazol-3-yl)pyrrolo[2,1-f][1,2,4]triazin-4-amine], for which the IC50 in assay [1] was under 1 nM; in the assay with A375 (wild type Kras) (setting [5]) it was over 50 nM; in assay [2] (setting [6]), 1 to 10 nM; in assay [3] (setting [7]) it was 1 to 10 nM; in assay [4] (setting [8]), 10 to 50 nM.
Consider `Cc1cc(Nc2nc(-c3nccn3C)nn3cc(-c4ccn(C)n4)c(C)c23)n[nH]1` [Compound 255, 5-Methyl-2-(1-methyl-1H-imidazol-2-yl)-6-(1-methyl-1H-pyrazol-3-yl)-N-(5-methyl-1H-pyrazol-3-yl)pyrrolo[2,1-f][1,2,4]triazin-4-amine], for which the IC50 is under 1 nM in assay [1]; 10 to 50 nM with A375 (wild type Kras) (setting [5]); 1 to 10 nM in assay [2] (setting [6]); 1 to 10 nM in assay [3] (setting [7]); 1 to 10 nM in assay [4] (setting [8]).
Turning to `COc1ccnc(Nc2nc(-c3nccn3C)nn3cc(-c4ccn(C(C)C)n4)c(C)c23)c1` [Compound 58, 6-(1-Isopropyl-1H-pyrazol-3-yl)-N-(4-methoxypyridin-2-yl)-5-methyl-2-(1-methyl-1H-imidazol-2-yl)pyrrolo[2,1-f][1,2,4]triazin-4-amine], the “Caspase 6 activation” value in the assay on active/cleaved caspase 6 (A549, after 48 hours) is recorded as “yes”; with active/cleaved caspase 6 (BT-549, after 48 hours) it was “yes”; in the assay with active/cleaved caspase 6 (MiaPaca2, after 48 hours), “yes”. Further, the “Caspase 9 activation” value is recorded as “yes” in the assay with active/cleaved caspase 9 (A549, after 48 hours); “yes” in the assay on active/cleaved caspase 9 (BT-549, after 48 hours); “yes” in the assay on active/cleaved caspase 9 (MiaPaca2, after 48 hours). Besides, the “Caspase 3 activation” value is given as “yes” in the assay with active/cleaved caspase 3 (A549, after 48 hours); “yes” with active/cleaved caspase 3 (BT-549, after 48 hours); “yes” in the assay with active/cleaved caspase 3 (MiaPaca2, after 48 hours). Further, the IC50 is under 1 nM in assay [1]; under 150 nM in the assay on A375 (wild type Kras) (A375, melanoma, KRas WT, read-out: Proliferation assay IC50); 1 to 10 nM in the assay on A375 (wild type Kras) (setting [5]); 10 to 50 nM in assay [2] (setting [6]); under 150 nM in assay [2] (colon, KRas G12D, read-out: Proliferation assay IC50); under 150 nM in assay [3] (NCI-H358, NSCLC, KRas G12C, read-out: Proliferation assay IC50). Also, the IC50 was 10 to 50 nM in assay [3] (setting [7]); 1 to 10 nM in assay [4] (setting [8]); under 150 nM in assay [4] (BT-549, Breast (TNBC), KRas WT, read-out: Proliferation assay IC50).
Consider `Cc1[nH]nc(Nc2nc(-c3nccn3C)nn3cc(-c4ccn(C)n4)c(C)c23)c1C` [Compound 267, N-(4,5-Dimethyl-1H-pyrazol-3-yl)-5-methyl-2-(1-methyl-1H-imidazol-2-yl)-6-(1-methyl-1H-pyrazol-3-yl)pyrrolo[2,1-f][1,2,4]triazin-4-amine], for which the IC50 in assay [1] was under 1 nM; with A375 (wild type Kras) (setting [5]) it was 1 to 10 nM; in assay [2] (setting [6]), 1 to 10 nM; in assay [3] (setting [7]), 1 to 10 nM; in assay [4] (setting [8]), 10 to 50 nM.
